Patent publication US5830881A, “L-2'3',dideoxy nucleoside analogs as anti-hepatitus B (HBV) agents” (priority 1996, dated 1998)
Where two headings read alike, the source gives them in different places.

Key:
[1] = test system: human immunodeficiency virus (HIV); details: in words, literature, cited from earlier work
[2] = test system: HIV-1; details: data from published literature; read-out: Anti-HIV ID50; cited from earlier work
[3] = test system: mitochondrial DNA; details: cited from earlier work; for IC50: data from published literature, read-out: Anti-mitochondrial DNA ID50
[4] = test system: CEM cells; details: cited from earlier work; for CC50: data from published literature, 4320 min, read-out: Cytotoxicity ID50
[5] = test system: HBV; details: data from published literature; read-out: Anti-HBV ID50; cited from earlier work
[6] = test system: Hepatitis B virus; details: in words; literature; cited from earlier work
[7] = test system: Hepatitis B viral infections; details: in words; prior therapy; cited from earlier work
[8] = in vitro; details: human, cem cells
[9] = test system: HIV-1; test: Anti-HIV effects in T-lymphoblastoid cell line MT-2 infected with HIV-1; assay type: cell-based; details: Human immunodeficiency virus 1, MT2, MT-2 cells, read-out: Anti-HIV ID50
Description: Anti-HIV effects were determined using the T-lymphoblastoid cell line, MT-2 infected with the HIV-1 virus. The inhibition was determined by the method of Larder, B. A., et al., Antimicrob. Agents Chemother., 34, 436 (1990).

[10] = test system: HBV; test: Anti-HBV effects: viral DNA from secreted particles of the 2.2.15 human hepatoma cell line carrying HBV (Southern analysis); assay type: cell-based, Hepatitis B virus
Description: The biological activity of the present compounds was assessed as described by Doong, S-L, et al., Proc. Natl. Acad. Sci. U.S.A 88, 8495-8499 (1991). The human hepatoma cell line carrying the HBV (designated 2.2.15) kindly provided by Dr. G. Acs was used in the study. Price, et al., Proc. Natl. Acad. Sci. U.S.A. 86, 8541 (1989). Briefly, Six day-old cultures were treating with varying concentrations of the drug in the culture medium (Minimum essential medium with Earl's salts and 10% fetal bovine serum). The drug was left in the culture medium for a period of 3 days after which period the medium was aspirated and fresh medium containing the same concentration(s) of the dry was added. At the end of the subsequent 3 day period the culture medium was harvested. The culture medium was processed for obtaining the virions by the polyethylene glycol precipitation method (Doong, et al., supra). Viral DNA thus recovered from the secreted particles was subjected to Southern analysis. Inhibition of the viral replication was determined by the comparison of the viral DNA from drug-treated versus control cultures not treated with the drug.

[11] = Cellular toxicity in T-lymphoblastoic cell line (CEM), cell number 3 days post treatment; assay type: cell-based; details: human; CEM cells, 3 days; read-out: Cytotoxicity ID50
Description: (§1) To determine the cellular toxicity of the present compounds, the T-lymphoblastoic cell line (CEM) was used. Cells were subjected to varying concentrations of the drug(s) and cell numbers were determined 3 days post treatment by the method described by Chen, C-H and Cheng, Y-C J. Biol. Chem., 264, 11934 (1989).

[12] = test system: CEM cells; test: as above; assay type: cell-based; details: in words
Description: as §1

2',3'-dideoxy-2',3'-didehydroguanosine [Carbovir]
activity against HIV [1]: significant activity

Nc1ccn([C@H]2CC[C@@H](CO)O2)c(=O)n1 [ddC, 2',3'-dideoxycytidine]
IC50 [2]: 1000 nM
activity against HIV [1]: among the most potent inhibitors of HIV
activity against HIV ([1]; listed as DDC): significant activity
IC50 [3]: 22 nM
effects on host mitochondrial DNA ([3]; in words): significant effects on host mitochonrial DNA
CC50 [4]: 10000 nM
cytotoxicity compared with L-ddC ([4]; in words, compared with L-ddC): much more cytotoxic than L-ddC
IC50 [5]: 2800 nM

OC[C@@H]1CC[C@H](n2cnc3c(O)ncnc32)O1 [DDI, 2',3'-dideoxyinosine]
activity against HIV [1]: significant activity

Nc1nc(=O)n([C@@H]2CS[C@H](CO)O2)cc1F (relative stereo) [(±)5-FSddC]
activity against Hepatitis B virus in culture [6]: potent activity

Nc1ncnc2c1ncn2[C@@H]1O[C@H](COP(=O)(O)O)[C@@H](O)[C@@H]1O [ara-AMP]
success in treatment of hepatitis [7]: limited success

interferon alpha
success in treatment of hepatitis [7]: limited success

Nc1ccn([C@H]2CS[C@@H](CO)O2)c(=O)n1 (stereo in doubt) [(-)S-ddC, (-)-2',3'-Dideoxy-3'-thiacytidine]
IC50 [2]: 2000 nM
IC50 [3]: > 50000 nM
CC50 [4]: 50000 nM
IC50 [5]: 10 nM
activity against Hepatitis B virus in culture [6]: potent activity

Nc1ccn([C@@H]2CS[C@H](CO)O2)c(=O)n1 (relative stereo) [(±) SddC, (+) and (-)-2',3'-Dideoxy-3'-thiacytidine]
activity against Hepatitis B virus in culture [6]: potent inhibitors of Hepatitis B virus

O=C(O)P(=O)(O)O [foscarnet]
success in treatment of hepatitis [7]: little, if any, success

Cc1cn([C@H]2C[C@H](F)[C@@H](CO)O2)c(=O)[nH]c1=O [3'-fluoro-3'-deoxythymidine]
activity against HIV [1]: significant activity

Cc1cn([C@H]2C=C[C@@H](CO)O2)c(=O)[nH]c1=O [Compound D4T, 3'-deoxy-2',3'-didehydrothymidine]
activity against HIV [1]: significant activity

Nc1ncnc2c1ncn2[C@H]1C[C@H](F)[C@@H](CO)O1 [3'-fluoro-2',3'-dideoxyadenosine]
activity against HIV [1]: significant activity

Nc1nc2c(ncn2COCCO)c(=O)[nH]1 [acyclovir]
success in treatment of hepatitis [7]: little, if any, success

Cc1cn([C@H]2C[C@H](N=[N+]=[N-])[C@@H](CO)O2)c(=O)[nH]c1=O [AZT]
success in treatment of hepatitis [7]: little, if any, success

Nc1ncnc2c1ncn2[C@@H]1O[C@H](CO)[C@@H](O)[C@@H]1O [adenine arabinoside]
success in treatment of hepatitis [7]: limited success

Nc1ccn([C@H]2C=C[C@@H](CO)O2)c(=O)n1 [2',3'-dideoxy-2',3'-didehydrocytidine]
activity against HIV [1]: significant activity

[N-]=[N+]=N[C@H]1C[C@H](n2ccc(=O)[nH]c2=O)O[C@@H]1CO [3'-azido-2',3'-dideoxyuridine]
activity against HIV [1]: significant activity

Nc1ccn([C@@H]2CC[C@H](CO)O2)c(=O)n1 [L-ddC, 1-(2,3-dideoxy-beta-L-ribofuranosyl)cytosine]
IC50 [8]: > 100000 nM
IC50 [9]: 8000 nM
IC50 ([10]; Hepatitis B virus, 2.2.15 cells, read-out: Anti-HBV ID50): 10 nM
inhibition of HBV DNA replication ([10]; in words): efficiently inhibited
activity against HBV ([10]; in words, relative activity): several fold higher activity against HBV
CC50 at 72 h [11]: 54000 ± 20000 nM
cellular effects [12]: minimal cellular effects
cellular cytotoxicity as compared to ddC ([12]; compared with ddC): considerably less
